# Like-named read-outs stand apart in the source and are kept apart here.
# Key:
# E. coli O157:H7 [1] = assay: In vitro formation of isothiocyanates by myrosinase, viable counts; type: cell-based, Escherichia coli O157:H7; details: glucosinolate 2.5 mM plus myrosinase 0.2 U/tube, MHB with sausage ingredients
# E. coli O157:H7 [2] = details: pH 4.9; cited from earlier work
# Staphylococcus carnosus = assay: microbe, parasite or virus in culture; type: cell-based; details: pH 5.5
# [3] = test system: E. coli O157:H7 (5-strain cocktail); assay: microbe, parasite or virus in culture; type: cell-based, Escherichia coli O157:H7; details: for MBC / Growth inhibition (p < 0.05): pH 5.5
# Pediococcus pentosaceus = assay: microbe, parasite or virus in culture; type: cell-based; details: pH 5.5
# E. coli O157:H7 [4] = assay: Minimum inhibitory concentration at dry-cured sausage pH; type: cell-based, Escherichia coli O157:H7; details: pH 5.5
# [5] = test system: Escherichia coli, Staphylococcus aureus, Campylobacter jejuni, Pseudomonas aeruginosa, Salmonella Enteritidis, Listeria monocytogenes, Shigella boydii and …; details: cited from earlier work
smiles,measurement,setting,value
O=S(=O)(O)O/N=C(/Cc1ccc(O)cc1)S[C@@H]1O[C@H](CO)[C@@H](O)[C@H](O)[C@H]1O [sinalbin],time after which E. coli was not detectable,E. coli O157:H7 [1],3 days
C=CCC(=NOS(=O)(=O)O)S[C@@H]1O[C@H](CO)[C@@H](O)[C@H](O)[C@H]1O (stereo in doubt) [sinigrin],time after which E. coli was not detectable,E. coli O157:H7 [1],2 days
"C=CCN=C=S [AIT, allyl isothiocyanate]",minimum inhibitory concentration,E. coli O157:H7 [2],~250 µM
same,MBC,"Staphylococcus carnosus; Staphylococcus carnosus, 18 h",1040 µM
same,Growth inhibition (p < 0.05),Staphylococcus carnosus,0.26 mM
same,MBC,"[3]; Escherichia coli, 18 h",1040 µM
same,Growth inhibition (p < 0.05),[3],0.26 mM
same,MBC,"Pediococcus pentosaceus; Pediococcus pentosaceus, 18 h",20.8 mM
same,Growth inhibition (p < 0.05),Pediococcus pentosaceus,10.40 mM
"Oc1ccc(CN=C=S)cc1 [ρ-HBIT, ρ-hydroxybenzyl isothiocyanate]",Growth inhibition (p < 0.05),Staphylococcus carnosus,0.3 mM
same,MBC,Staphylococcus carnosus,590 µM
same,Growth inhibition (p < 0.05),[3],0.59 mM
same,MBC,[3],1480 µM
same,minimum inhibitory concentration,E. coli O157:H7 [4],~600 µM
same,Growth inhibition (p < 0.05),Pediococcus pentosaceus,1.48 mM
same,MBC,Pediococcus pentosaceus,5.92 mM
same,bactericidal concentration,[5],0.35 to 2.13 mM
"OCc1ccc(O)cc1 [ρ-HBA, ρ-hydroxybenzyl alcohol]",inhibitory activity against E. coli O157:H7,[3],very weak
same,Growth inhibition (p < 0.05),[3],20.14 mM

# — US20110045139A1, “FERMENTED SAUSAGE AND METHODS OF MAKING SAME” (priority 2009, published 2011)
